Measured values taken from patent US9750724B2, “Use of an aromatase inhibitor for the treatment of hypogonadism and related diseases” (Mereo BioPharma 2 Limited, priority 2011, dated 2017).
Where two headings read alike, the source gives them in different places.

Columns and labels:
[1] = tested on: serum testosterone, estradiol, LH and FSH; settings: 2.5 mg weekly, cited from earlier work; for free testosterone: fixed dosing interval
[2] = Single ascending dose study in pre- and post-menopausal women, pharmacokinetics; format: in vivo, human; settings: female, human, in vivo, 2.5 mg
From the text: The drug concentration in plasma and/or serum samples can be determined by a number of different ways, e.g. HPLC or LC-MS/MS analyses. […]
A minimal toxic dose (MTD) was not reached. […] Table 3 presents the PK parameters based on preliminary analysis of the concentration-time profile obtained from this study.

What does the source list for N#Cc1ccc(C(c2ccc(C#N)cc2)n2cncn2)cc1 [Letrozole, letrozole]?
LH and FSH ([1]; 12 OHH men): increased LH and FSH; total estradiol ([1]; 12 OHH men): suppressed total estradiol; total testosterone ([1]; 12 OHH men, de Boer 2005, Loves 2008): increased total testosterone into the normal range; free testosterone [1]: rose above the normal range in approximately half of the subjects; free testosterone ([1]; listed as letrozole): excessive free testosterone levels in approximately half the subjects; Tmax [2]: 1 h; AUC(0-t) ([2]; AUC (0-tlast) Mean): 1670 ng·h/mL; Cmax ([2]; Cmax Mean): 33.5 ng/mL; half-life ([2]; T1/2 Mean): 69.6 h
